Results: PubChem BioAssay (NCI)
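The compound was tested at five concentrations on cells cultured in 96-well plates, with a 48-hour exposure period. GI50: concentration for 50% inhibition of growth. TGI: total growth inhibition.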

What was measured:
Experiment in all cases: NCI anticancer screen, dose series, 48 h
[1] = tested on: COLO 205 colon
[2] = tested on: LOX IMVI melanoma
[3] = tested on: MALME-3M melanoma
[4] = tested on: PC-3 prostate
[5] = tested on: UO-31 renal
[6] = tested on: KM12 colon
[7] = tested on: SF-539 CNS
[8] = tested on: SW-620 colon
[9] = tested on: UACC-62 melanoma
[10] = tested on: MDA-MB-231 breast
[11] = tested on: K-562 leukemia
[12] = tested on: OVCAR-3 ovarian
[13] = tested on: M14 melanoma
[14] = tested on: HCT-15 colon
[15] = tested on: HL-60(TB) leukemia
[16] = tested on: ACHN renal
[17] = tested on: MDA-MB-435
[18] = tested on: EKVX NSCLC
[19] = tested on: U251 CNS
[20] = tested on: NCI-H522 lung
[21] = tested on: HCT-116 colon
[22] = tested on: MCF7 breast
[23] = tested on: HOP-62 NSCLC
[24] = tested on: OVCAR-4 ovarian
[25] = tested on: HS 578T breast
[26] = tested on: TK-10 renal
[27] = tested on: HT29 colon
[28] = tested on: RXF 393 renal
[29] = tested on: IGROV1 ovarian
[30] = tested on: SK-MEL-2 melanoma
[31] = tested on: T-47D breast
[32] = tested on: SK-MEL-5 melanoma
[33] = tested on: SK-OV-3 ovarian
[34] = tested on: RPMI-8226 leukemia
[35] = tested on: SK-MEL-28 melanoma
[36] = tested on: OVCAR-8 ovarian
[37] = tested on: SNB-75 CNS
[38] = tested on: BT-549 breast
[39] = tested on: CAKI-1 renal
[40] = tested on: MOLT-4 leukemia
[41] = tested on: 786-0 renal
[42] = tested on: SN12C renal
[43] = tested on: SF-295 CNS
[44] = tested on: SF-268 CNS
[45] = tested on: NCI/ADR-RES ovarian
[46] = tested on: OVCAR-5 ovarian
[47] = tested on: SNB-19 CNS
[48] = tested on: NCI-H460 lung
[49] = tested on: A549 NSCLC
[50] = tested on: DU-145 prostate
[51] = tested on: A498 renal
[52] = tested on: HCC-2998 colon

Cc1cccc(Oc2nccc(-c3c(-c4ccc(F)cc4)ncn3C3CCNCC3)n2)c1C
GI50 [1]: 4.21 µM
TGI [1]: 8.03 µM
GI50 [2]: 5.79 µM
TGI [2]: > 15.1 µM
GI50 [3]: 4.68 µM
TGI [3]: 9.58 µM
GI50 [4]: 9.94 µM
TGI [4]: > 23.2 µM
GI50 [5]: 4.97 µM
TGI [5]: > 19.9 µM
GI50 [6]: 11.2 µM
TGI [6]: > 23.8 µM
GI50 [7]: 4.84 µM
TGI [7]: 10.4 µM
GI50 [8]: 7.81 µM
TGI [8]: > 14.3 µM
GI50 [9]: 4.94 µM
TGI [9]: 9.96 µM
GI50 [10]: 5.42 µM
TGI [10]: 13.9 µM
GI50 [11]: 5.68 µM
TGI [11]: 16 µM
GI50 [12]: 14.3 µM
TGI [12]: > 25 µM
GI50 [13]: 4.8 µM
TGI [13]: 9.01 µM
GI50 [14]: 8.12 µM
TGI [14]: > 25 µM
GI50 [15]: 9.38 µM
TGI [15]: > 22.4 µM
GI50 [16]: 6.11 µM
TGI [16]: > 25 µM
GI50 [17]: 6.52 µM
TGI [17]: > 16.1 µM
GI50 [18]: > 14 µM
TGI [18]: > 25 µM
GI50 [19]: 7.28 µM
TGI [19]: > 22.6 µM
GI50 [20]: 9.84 µM
TGI [20]: > 16.2 µM
GI50 [21]: 7.26 µM
TGI [21]: > 17.8 µM
GI50 [22]: 6.68 µM
TGI [22]: > 14.4 µM
GI50 [23]: 4.84 µM
TGI [23]: 9.56 µM
GI50 [24]: 7.9 µM
TGI [24]: > 25 µM
GI50 [25]: 8.9 µM
TGI [25]: > 16.2 µM
GI50 [26]: 7.16 µM
TGI [26]: > 16.3 µM
GI50 [27]: 4.68 µM
TGI [27]: 10.8 µM
GI50 [28]: 3.53 µM
TGI [28]: 9.17 µM
GI50 [29]: 6.76 µM
TGI [29]: > 16.7 µM
GI50 [30]: 9.09 µM
TGI [30]: > 15.9 µM
GI50 [31]: 4.92 µM
TGI [31]: 10.6 µM
GI50 [32]: 3.61 µM
TGI [32]: 6.92 µM
GI50 [33]: 5.72 µM
TGI [33]: 12.5 µM
GI50 [34]: 7.52 µM
TGI [34]: > 18.6 µM
GI50 [35]: 4.65 µM
TGI [35]: 9.48 µM
GI50 [36]: 10.7 µM
TGI [36]: > 23.5 µM
GI50 [37]: 5.58 µM
TGI [37]: > 17.5 µM
GI50 [38]: 10.9 µM
TGI [38]: > 19.6 µM
GI50 [39]: 8.79 µM
TGI [39]: > 19.8 µM
GI50 [40]: 7.17 µM
TGI [40]: 17.6 µM
GI50 [41]: 8.22 µM
TGI [41]: > 18 µM
GI50 [42]: 9.16 µM
TGI [42]: > 25 µM
GI50 [43]: 5.56 µM
TGI [43]: 14 µM
GI50 [44]: 13.3 µM
TGI [44]: > 25 µM
GI50 [45]: 11.5 µM
TGI [45]: > 25 µM
GI50 [46]: 8.62 µM
TGI [46]: > 25 µM
GI50 [47]: 10.2 µM
TGI [47]: > 25 µM
GI50 [48]: 6.24 µM
TGI [48]: > 15 µM
GI50 [49]: > 14.3 µM
TGI [49]: > 25 µM
GI50 [50]: > 11.4 µM
TGI [50]: > 16.3 µM
GI50 [51]: 6.22 µM
TGI [51]: > 15.7 µM
GI50 [52]: 4.22 µM
TGI [52]: 8.96 µM
